# In article PMC9775322, “An Integrated Analysis of Mechanistic Insights into Biomolecular Interactions and Molecular Dynamics of Bio-Inspired Cu(II) and Zn(II) Complexes towards DNA/BSA/SARS-CoV-2 3CL^pro by Molecular Docking-Based Virtual Screening and FRET Detection” (Biomolecules, 2022):
# Legend:
# Mucor indicus = experiment: Agar disc diffusion antifungal test; conditions: for Inhibition % / diameter of clear zone inhibition: J; for Inhibition %: (T–C)/T × 100; for diameter of clear zone inhibition: 20 µL of 100 µM on 6 mm disc, Control (DMSO) = 6 mm
# [1] = tested on: Salmonella enteric serovar typhi; experiment: Agar disc diffusion antibacterial test; format: cell-based; conditions: B; for Inhibition %: (T–C)/T × 100
# Aspergillus niger = experiment: Agar disc diffusion antifungal test; conditions: for Inhibition % / diameter of clear zone inhibition: H; for Inhibition %: (T–C)/T × 100; for diameter of clear zone inhibition: 20 µL of 100 µM on 6 mm disc, Control (DMSO) = 6 mm
# Pseudomonas aeruginosa = experiment: Agar disc diffusion antibacterial test; conditions: for Inhibition % / diameter of clear zone inhibition: D, (-) Pseudomonas aeruginosa; for Inhibition %: (T–C)/T × 100; for diameter of clear zone inhibition: 20 µL of 100 µM on 6 mm disc, Control (DMSO) = 6 mm
# Bacillus cereus = experiment: Agar disc diffusion antibacterial test; conditions: for Inhibition % / diameter of clear zone inhibition: G, (+) Bacillus cereus; for Inhibition %: (T–C)/T × 100; for diameter of clear zone inhibition: 20 µL of 100 µM on 6 mm disc, Control (DMSO) = 6 mm
# [2] = tested on: HepG2 Liver cancer cell line; experiment: MTT cell viability assay; format: cell-based; conditions: 72 h exposure, at least three independent experiments
# [3] = tested on: NHDF Normal human dermal fibroblasts cell line; experiment: MTT cell viability assay; format: cell-based; conditions: 72 h exposure
# [4] = tested on: A549 Human lung cancer cell line; experiment: MTT cell viability assay; format: cell-based; conditions: 72 h exposure, at least three independent experiments
# [5] = tested on: MCF-7 Breast cancer cell line; experiment: MTT cell viability assay; format: cell-based; conditions: 72 h exposure, at least three independent experiments
# [6] = read-out: diameter of clear zone inhibition
# [7] = 20 µL of 100 µM on 6 mm disc, Control (DMSO) = 6 mm
SMILES,Inhibition % (Mucor indicus) [%],zone of inhibition at 100 µM (Mucor indicus; [6]) [mm],"zone of inhibition at 100 µM ([1]; 20 µL of 100 µM on 6 mm disc, Control (DMSO) = 6 mm, read-out: diameter of clear zone inhibition) [mm]",Inhibition % [1] [%],Inhibition % (Aspergillus niger) [%],zone of inhibition at 100 µM (Aspergillus niger; [6]) [mm],Inhibition % (Pseudomonas aeruginosa) [%],"zone of inhibition at 100 µM (Pseudomonas aeruginosa; Pseudomonas aeruginosa, read-out: diameter of clear zone inhibition) [mm]","zone of inhibition at 100 µM (Bacillus cereus; Bacillus cereus, read-out: diameter of clear zone inhibition) [mm]",Inhibition % (Bacillus cereus) [%],IC50 [2] [µM],diameter of clear zone inhibition (Mucor indicus) [mm],IC50 [3] [µM],IC50 [4] [µM],IC50 [5] [µM],"diameter of clear zone inhibition [1, 7] [mm]",diameter of clear zone inhibition (Aspergillus niger) [mm],diameter of clear zone inhibition (Pseudomonas aeruginosa) [mm],diameter of clear zone inhibition (Bacillus cereus) [mm]
"Oc1ccccc1N=Cc1ccc(N2CCOCC2)cc1 [(HL), 2-(4-morpholinobenzylideneamino)phenol]",45,11,9,33,40,10,25,8,9,33,–,–,–,–,–,–,–,–,–
"[Cu+2].[O-]c1ccccc1N=Cc1ccc(N2CCOCC2)cc1.[O-]c1ccccc1N=Cc1ccc(N2CCOCC2)cc1.c1cnc2c(c1)ccc1cccnc12 [(1b), [Cu^II(L)2(phen)]]",40,–,–,40,40,–,33,–,–,40,30.9 ± 1.2,10,72.6 ± 2.9,29.7 ± 1.2,31.7 ± 1.3,10,10,9,10
"[O-]c1ccccc1N=Cc1ccc(N2CCOCC2)cc1.[O-]c1ccccc1N=Cc1ccc(N2CCOCC2)cc1.[Zn+2].c1cnc2c(c1)ccc1cccnc12 [(2b), [Zn^II(L)2(phen)]]",40,–,–,40,45,–,25,–,–,45,33.4 ± 1.4,10,74.5 ± 3,32.1 ± 1.3,32.5 ± 1.3,10,11,08,11
